Results: US20250381242A1 (INVAIO SCIENCES, INC., priority 2024, published 2025)
No end group written: not given here.

Assays:
E. coli = assay: Bacterial growth inhibition by OD600 absorbance, E. coli; type: cell-based, E. coli (DH5-alpha); conditions: peptide 10 μM, 24 hours at 37° C., OD 600 nm
Protocol: (§1) Antimicrobial activity of antimicrobial peptides was tested against the agricultural microbial pests A. tumefaciens, E. amylovora, E. coli, and X. citri, using OD absorbance measurement to detect bacterial growth.
(§2) Antimicrobial peptides were synthesized using solid phase peptide synthesis method and resuspended in 10% DMSO to a 1 mM stock concentration. The stock solution was aliquoted in cryovials and stored at −80° C.
(§3) An aliquot of 198 μl of the bacterial culture was added to each well in a 96-well plate and 2 μl of a 1 mM peptide stock solution was added to each well, for a final treatment concentration of 10 μM of a given peptide. Media only wells were included to control for contamination. The positive controls were 50 μg/ml oxytetracycline hydrochloride and 500 μg/ml streptomycin sulfate. A 0.1% DMSO treatment was included as a negative control.
(§4) An initial absorbance reading of the bacterial suspensions was taken at 600 nm. Then, the bacteria were grown in an incubator at 30° C. (A. tumefaciens, E. amylovora, X. citri) or 37° C. (E. coli) for 24 hours, after which the final absorbance reading was measured. Using the initial and final absorbance reading compared to negative and positive controls, the percent inhibition of the bacterial strain by given peptide treatment was determined.

X. citri = assay: Bacterial growth inhibition by OD600 absorbance, X. citri; type: cell-based, X. citri subsp. citri (ATCC 49118); conditions: peptide 10 μM, 24 hours at 30° C., OD 600 nm
Protocol: as §1, §2, §3, §4

A. tumefaciens = conditions: 24 h, 10 μM
E. amylovora = conditions: 24 h, 10 μM

Row | Sequence | growth inhibition, E. coli (E. coli) [%] | growth inhibition, X. citri (X. citri) [%] | growth inhibition, A. tumefaciens (A. tumefaciens) [%] | growth inhibition, E. amylovora (E. amylovora) [%]
1 | INLKKLAARIKKKI [compound 112] | <90 | 100.00 | <90 | <90
2 | INWKKIKKKVAGML [compound 108] | <90 | 100.00 | <90 | 95.63
3 | INWLKIAKKVKGML [compound 111] | <90 | 100.00 | <90 | 100.00
4 | IRIKIRIKIRIK [compound 123] | <90 | <90 | <90 | <90
5 | IRVKIRVKIRVK [compound 128] | 100.00 | <90 | 97.32 | 99.30
6 | KIKWILKYWKWS [compound 106] | <90 | <90 | <90 | <90
7 | KKAAAAAAAAAAAAWAAAAAAKKKK [compound 70] | <90 | <90 | <90 | <90
8 | KKIGIWIGIKK [compound 141] | <90 | <90 | <90 | <90
9 | KKKKKKAAAFAAAAAFAAWAAFAAA [compound 51] | <90 | <90 | <90 | <90
10 | KKKKWKLFKKIGIGKFL [compound 75] | <90 | 100.00 | <90 | 100.00
11 | KKLLKLKLKWKK [compound 121] | <90 | 100.00 | <90 | <90
12 | KKLTLWLTLKK [compound 140] | <90 | <90 | <90 | <90
13 | KKPLLKKLLKKL [compound 133] | <90 | <90 | <90 | <90
14 | KKVVFKVKFK [compound 142] | <90 | <90 | <90 | <90
15 | KKWRKWLAKKKKK [compound 101] | <90 | <90 | <90 | <90
16 | KLKKIWWIKVKK [compound 116] | <90 | <90 | <90 | <90
17 | KLKKLLKKWLKLLKKLLK [compound 68] | 100.00 | <90 | <90 | <90
18 | KLLKQWPIGKLLKKLLKKLLK [compound 42] | 100.00 | 100.00 | 100.00 | <90

Row | Sequence | growth inhibition, E. coli (E. coli) [%] | growth inhibition, X. citri (X. citri) [%] | growth inhibition, A. tumefaciens (A. tumefaciens) [%] | growth inhibition, E. amylovora (E. amylovora) [%]
19 | KLLLKWKLKLLK [compound 126] | <90 | <90 | <90 | <90
20 | KLRKLFRKLLKLIRKLLR [compound 65] | 95.59 | <90 | <90 | <90
21 | KRIVARIKAFLR [compound 130] | <90 | <90 | <90 | 100.00
22 | KVVKQWPIGKVVKKVVKKVVK [compound 58] | <90 | <90 | <90 | <90
23 | KWKLFKKIGPGKFLHSAKKF [compound 60] | <90 | <90 | <90 | <90
24 | KWKLFKKIPLAKKF [compound 100] | <90 | <90 | <90 | <90
25 | KWKSFLKTFKSAKKTSLHTALKAISS [compound 26] | <90 | <90 | <90 | <90
26 | KWKSFLKTLKSPVKTVFYTALKPISS [compound 22] | 100.00 | 100.00 | 100.00 | 100.00
27 | KWLKKWLKWLKK [compound 102] | 100.00 | <90 | 100.00 | 100.00
28 | KWLLKLKLKLLK [compound 125] | <90 | <90 | <90 | <90
29 | LKKWWKTSKGLLGGLLGKVTSVIK [compound 34] | 100.00 | 100.00 | 100.00 | 100.00
30 | MQFITDLIKKAVDFIKGLFGNK [compound 43] | 94.72 | <90 | <90 | <90
31 | NAGSLLSGWG [compound 144] | <90 | <90 | <90 | <90
32 | NKVKEWIKYLKSLFS [compound 96] | <90 | <90 | 100.00 | 100.00
33 | RLSRIVVIRVSR [compound 132] | <90 | <90 | <90 | <90
34 | SWLSKTAKKLENSAKKRISEGIAIAIQGGPR [compound 11] | 100.00 | 100.00 | 99.35 | 100.00
35 | VKLVYPLKVKLYP [compound 119] | <90 | <90 | <90 | <90
36 | VKLYPVKLYP [compound 143] | <90 | <90 | <90 | <90
